Test results from patent publication US20250144125A1 (priority 2021, published 2025).
Where two headings read alike, the source gives them in different places. Marks after values point to notes of the source that are not given here.

Assays:
[1] = system: measles virus (CC strain); experiment: microbe, parasite or virus in culture; assay type: cell-based
in vitro [2] = conditions: African green monkey
[3] = system: human norovirus genogroup I NoV (Norwalk virus replicon) in HG23 cells; experiment: Human norovirus antiviral assay, qRT PCR in HG23 NoV replicon cells; assay type: cell-based; conditions: for EC50: Norwalk virus
[4] = Cytotoxicity in the human norovirus replicon assay (HG23 cells); conditions: human, HG23 Nov replicon cells
MERS-CoV (EMC strain) = experiment: microbe, parasite or virus in culture; assay type: cell-based
[5] = system: tacaribe virus (TRVL11573 strain); experiment: microbe, parasite or virus in culture; assay type: cell-based; conditions: for EC50: read-out: Tacaribe virus EC50 TRVL 11573 strain
[6] = system: yellow fever virus (YFV 17D strain); experiment: microbe, parasite or virus in culture; assay type: cell-based
[7] = system: enterovirus-71 (Tainan/4643/98 strain); experiment: organism not typed; assay type: cell-based
Vero cells = conditions: African green monkey
in vitro [8] = conditions: African green monkey; remark: listed apart in the source
in vitro [9] = conditions: human
[10] = system: chikungunya virus (S27 strain); experiment: microbe, parasite or virus in culture; assay type: cell-based
[11] = system: dengue virus 2 (New Guinea C strain); experiment: microbe, parasite or virus in culture; assay type: cell-based
[12] = system: influenza A (H1N1) virus (California/07/2009 strain); experiment: microbe, parasite or virus in culture; assay type: cell-based
in vitro [13] = conditions: dog
[14] = Measles morbillivirus, Vero 76, read-out: Measles EC50 CC strain
[15] = HG23 Nov replicon cells, qRT PCR intracellular RNA, read-out: EC50 human norovirus
[16] = read-out: Measles EC50 CC strain
[17] = Mammarenavirus tacaribeense, Vero
[18] = Yellow fever virus, Huh-7, read-out: Yellow fever virus EC50 YFV 17D strain
[19] = read-out: Yellow fever virus EC50 YFV 17D strain
[20] = Vero 76, read-out: EC50 enterovirus-71
[21] = read-out: MERS-CoV CC50 Vero 76, Neutral Red, MERS-CoV screen
[22] = read-out: Yellow fever virus CC50 Huh7, Neutral Red, YFV screen
[23] = Middle East respiratory syndrome-related coronavirus, Vero 76, read-out: MERS-CoV EC50 EMC strain
[24] = read-out: MERS-CoV EC50 EMC strain
[25] = Chikungunya virus, Vero 76, read-out: EC50 chikungunya virus
[26] = read-out: EC50 chikungunya virus
[27] = Dengue virus, Huh-7, read-out: EC50 dengue virus 2
[28] = Influenza A virus, H1N1, MDCK, read-out: EC50 California/07/2009 strain
[29] = read-out: Yellow fever virus CC50 Huh7, Visual, YFV screen

| Structure (SMILES) | EC50 [1, 14] | CC50 (in vitro [2]; Measles CC50 Vero 76) | EC50 [3, 15] | CC50 at 3 days [4] | EC50 [1, 16] | EC50 [5, 17] | EC50 [6, 18] | EC50 [6, 19] | EC50 [7, 20] | CC50 (Vero 76 cells; [21]) | CC50 (Huh7 cells; human) | CC50 (Huh7 cells; [22]) | CC50 (in vitro [2]; MERS-CoV CC50 Vero 76) | CC50 (in vitro [9]; Yellow fever virus CC50 Huh7) | EC50 (MERS-CoV (EMC strain); [23]) | EC50 [10, 25] | EC50 [11, 27] | EC50 ([11]; read-out: EC50 dengue virus 2) | EC50 [12, 28] | CC50 (in vitro [13]; CC50 MDCK) | other results |
| --- | --- | --- | --- | --- | --- | --- | --- | --- | --- | --- | --- | --- | --- | --- | --- | --- | --- | --- | --- | --- | --- |
| Nc1ccn([C@@H]2O[C@H](CO)[C@@H](O)[C@H]2F)c(=O)n1 [2′-Fluoro-2′-deoxycytidine, 2′-fluoro-2′-deoxycytidine, reference compound] | 1 µg/mL | > 100 µg/mL | – | – | – | – | – | – | – | – | – | – | – | – | – | – | – | – | – | – | Measles EC50 CC strain [1]: 0.95^d μg/mL |
| C[C@@]1(O)[C@H](O)[C@@H](CO)O[C@H]1n1ccc(N)nc1=O [2′C Methyl Cytidine, 2′-C-Methylcytidine, reference compound] | – | – | 1.57 µM | > 25 µM | – | – | – | – | – | – | – | – | – | – | – | – | – | – | – | – | – |
| C=C(OCC)c1ncnc2c1ccn2[C@@H]1O[C@H](CO)[C@@H](O)[C@H]1O [3.1b, 6-(1-Ethoxyvinyl)-9-β-D-ribofuranosyl-7-deazapurine] | > 100 µM | > 100 µM | – | 60.5 µM | 64 µM | 44 µM | > 28 µM | > 22 µM | > 84 µM | 86 µM | 8.6 µM | 22 µM | 52 µM | 28 µM | – | – | – | – | – | – | activity against MERS-CoV in words (MERS-CoV (EMC strain)): moderately active with low selectivity index; EC50 [5]: 39 µM; EC50 ([3]; HG23, read-out: EC50 human norovirus): 0.007 µM; EC50 ([7]; read-out: EC50 enterovirus-71): 90 µM; CC50 (Vero 76 cells; African green monkey): 100 µM; CC50 (Vero cells): 99 µM; CC50 (in vitro [8]; Tacaribe virus CC50 Vero): 100 µM; CC50 (in vitro [9]; CC50): 8.5 µM |
| OC[C@H]1O[C@@H](n2ccc3c(C#Cc4ccc(F)cc4)ncnc32)[C@H](O)[C@@H]1O [3.1h, 6-((4-Fluorophenyl)ethynyl)-9-β-D-ribofuranosyl-7-deazapurine] | 6.2 µM | 28 µM | < 0.001 µM | 38.5 µM | 7.1 µM | 24 µM | 2.2 µM | 2.3 µM | > 39 µM | 29 µM | – | 30 µM | 32 µM | 32 µM | > 32 µM | > 36 µM | > 32 µM | > 29 µM | – | – | EC50 (MERS-CoV (EMC strain); [24]): > 29 µM; EC50 [5]: > 23 µM; activity against human norovirus in words [3]: low nanomolar activity and high selectivity; EC50 [10, 26]: 32 µM; EC50 ([7]; read-out: EC50 enterovirus-71): > 46 µM; CC50 (Vero cells): 23 µM; CC50 (in vitro [2]; CC50): 36 µM; CC50 (in vitro [8]; Tacaribe virus CC50 Vero): 24 µM |
| OC[C@H]1O[C@@H](n2ccc3c(C#Cc4cccc(F)c4)ncnc32)[C@H](O)[C@@H]1O [3.1i, 6-((3-Fluorophenyl)ethynyl)-9-β-D-ribofuranosyl-7-deazapurine] | 3.2 µM | 24 µM | – | – | 3.6 µM | > 12 µM | 1.2 µM | 0.85 µM | > 32 µM | – | 22 µM | 30 µM | 32 µM | 32 µM | > 32 µM | > 32 µM | 2.6 µM | 2.7 µM | – | – | EC50 [5]: > 11 µM; EC50 [10, 26]: > 30 µM; EC50 ([7]; read-out: EC50 enterovirus-71): > 28 µM; CC50 (Vero cells): 11 µM; CC50 (in vitro [8]; Tacaribe virus CC50 Vero): 12 µM; CC50 (in vitro [9]; CC50): 24 µM |
| C#Cc1cn([C@@H]2O[C@H](CO)[C@@H](O)[C@H]2O)c2ncnc(CC)c12 [3.1l, 6-Ethyl-7-ethynyl-9-β-D-ribofuranosyl-7-deazapurine] | 72 µM | – | 0.393 µM | 0.455 µM | > 100 µM | > 100 µM | > 100 µM | > 92 µM | > 100 µM | > 100 µM | 51 µM | 92 µM | > 100 µM | > 100 µM | – | > 100 µM | > 100 µM | > 51 µM | 0.34 µM | > 100 µM | EC50 ([12]; read-out: EC50 California/07/2009 strain): 0.52 µM; activity against human norovirus in words [3]: no promising activity |
| C=Cc1cn([C@@H]2O[C@H](CO)[C@@H](O)[C@H]2O)c2ncnc(CC)c12 [3.1m, 6-Ethyl-7-vinyl-9-β-D-ribofuranosyl-7-deazapurine] | 25 µM | – | 3.35 µM | 14.6 µM | 43 µM | > 100 µM | – | – | > 100 µM | > 100 µM | – | 20 µM | > 100 µM | – | 22 µM | > 100 µM | 32 µM | > 19 µM | > 100 µM | > 100 µM | EC50 (MERS-CoV (EMC strain); [24]): 14 µM; activity against human norovirus in words [3]: no promising activity; CC50 (Huh7 cells; [29]): 4.6 µM |
| CCc1ncnc2c1c(C#CC1CC1)cn2[C@@H]1O[C@H](CO)[C@@H](O)[C@H]1O [3.1n, 6-Ethyl-7-cyclopropylethynyl-9-β-D-ribofuranosyl-7-deazapurine] | 64 µM | > 100 µM | 0.062 µM | 0.342 µM | 33 µM | > 100 µM | – | – | > 100 µM | > 100 µM | – | 21 µM | 100 µM | – | 10 µM | > 100 µM | 13 µM | > 8.3 µM | > 100 µM | > 100 µM | activity against MERS-CoV in words (MERS-CoV (EMC strain)): moderately active with low selectivity index; EC50 (MERS-CoV (EMC strain); [24]): 5.7 µM; activity against human norovirus in words [3]: no promising activity; CC50 (Huh7 cells; [29]): 100 µM; CC50 (in vitro [2]; CC50): > 100 µM; CC50 (in vitro [8]; Tacaribe virus CC50 Vero): > 100 µM |
| CCc1ncnc2c1c(I)cn2[C@@H]1O[C@H](CO)[C@@H](O)[C@H]1O [3.1o, 6-Ethyl-7-iodo-9-β-D-ribofuranosyl-7-deazapurine] | 100 µM | – | – | – | > 100 µM | > 100 µM | > 100 µM | > 85 µM | > 100 µM | > 100 µM | 64 µM | 85 µM | > 100 µM | > 100 µM | > 100 µM | > 100 µM | > 68 µM | > 64 µM | > 100 µM | > 100 µM | EC50 (MERS-CoV (EMC strain); [24]): 68 µM; CC50 (in vitro [9]; CC50): 68 µM |
| CCc1ncnc2c1c(Cl)cn2[C@@H]1O[C@H](CO)[C@@H](O)[C@H]1O [3.1p, 6-Ethyl-7-chloro-9-β-D-ribofuranosyl-7-deazapurine] | 100 µM | – | – | – | > 100 µM | 100 µM | > 100 µM | – | > 100 µM | > 100 µM | 38 µM | > 100 µM | > 100 µM | > 100 µM | 100 µM | > 100 µM | 32 µM | > 38 µM | > 100 µM | > 100 µM | EC50 (MERS-CoV (EMC strain); [24]): > 100 µM; EC50 [5]: > 100 µM; CC50 (in vitro [9]; CC50): 68 µM |
| CCc1ncnc2c1c(Br)cn2[C@@H]1O[C@H](CO)[C@@H](O)[C@H]1O [3.1q, 6-Ethyl-7-bromo-9-β-D-ribofuranosyl-7-deazapurine] | > 100 µM | – | – | – | – | > 100 µM | > 100 µM | – | > 100 µM | > 100 µM | 47 µM | > 100 µM | > 100 µM | > 100 µM | > 100 µM | – | > 68 µM | > 47 µM | > 100 µM | > 100 µM | CC50 (in vitro [9]; CC50): 68 µM |
| NC(=O)c1ncn([C@@H]2O[C@H](CO)[C@@H](O)[C@H]2O)n1 [Ribavirin, ribavirin, reference compound] | – | – | – | – | – | 9.2 µg/mL | – | – | – | – | – | – | – | – | – | – | – | – | 2.2 µg/mL | > 1000 µg/mL | Tacaribe virus EC50 TRVL 11573 strain [5]: 7.8^d μg/mL; EC50 California/07/2009 strain [12]: 2.4^d μg/mL; EC50 ([12]; Influenza A virus, H1N1, MDCK, read-out: EC50 Influenza A (H1N1)): 10.2 µM; CC50 (Vero cells): > 3600 µM; Tacaribe virus CC50 Vero (Vero cells): 970^d μg/mL; CC50 (in vitro [8]; CC50): > 2950 µM; CC50 (in vitro [8]; Tacaribe virus CC50 Vero): > 1000 µg/mL; CC50 (in vitro [13]; CC50): > 4100 µM |
